According to ChEMBL document CHEMBL1129295, “Studies of cardiotonic agents. 8. Synthesis and biological activities of optically active 6-(4-(benzylamino)-7-quinazolinyl)-4,5-dihydro-5-methyl-3(2H)- pyridazinone (KF15232)” (J Med Chem, 1996):

Target: not listed separately
Test: Inhibition of bovine arterial Phosphodiesterase 4
Set-up: species or system Bos taurus

Q: With COc1ccc(C2CNC(=O)C2)cc1OC1CCCC1 (configuration not stated) [ROLIPRAM] as the compound, how does the IC50 read?
A: 0.1 µM

Q: Which IC50 does the source give for C[C@@H]1CC(=O)NN=C1c1ccc2c(NCc3ccccc3)ncnc2c1 here?
A: > 10 µM

Q: Which IC50 does the source give for Cc1[nH]c(=O)c(C#N)cc1-c1ccncc1 [MILRINONE] here?
A: 10 µM

Q: Which IC50 does the source give for CC1CC(=O)NN=C1c1ccc2c(NCc3ccccc3)ncnc2c1 (racemic) here?
A: > 10 µM

Q: For C[C@H]1CC(=O)NN=C1c1ccc2c(NCc3ccccc3)ncnc2c1, which IC50 is on record?
A: > 10 µM

Target: Phosphodiesterase 3B (Bos taurus, UniProt E1BN64)
Test: Inhibition of bovine arterial Phosphodiesterase 3

Sequence of Phosphodiesterase 3B (E1BN64 whole entry): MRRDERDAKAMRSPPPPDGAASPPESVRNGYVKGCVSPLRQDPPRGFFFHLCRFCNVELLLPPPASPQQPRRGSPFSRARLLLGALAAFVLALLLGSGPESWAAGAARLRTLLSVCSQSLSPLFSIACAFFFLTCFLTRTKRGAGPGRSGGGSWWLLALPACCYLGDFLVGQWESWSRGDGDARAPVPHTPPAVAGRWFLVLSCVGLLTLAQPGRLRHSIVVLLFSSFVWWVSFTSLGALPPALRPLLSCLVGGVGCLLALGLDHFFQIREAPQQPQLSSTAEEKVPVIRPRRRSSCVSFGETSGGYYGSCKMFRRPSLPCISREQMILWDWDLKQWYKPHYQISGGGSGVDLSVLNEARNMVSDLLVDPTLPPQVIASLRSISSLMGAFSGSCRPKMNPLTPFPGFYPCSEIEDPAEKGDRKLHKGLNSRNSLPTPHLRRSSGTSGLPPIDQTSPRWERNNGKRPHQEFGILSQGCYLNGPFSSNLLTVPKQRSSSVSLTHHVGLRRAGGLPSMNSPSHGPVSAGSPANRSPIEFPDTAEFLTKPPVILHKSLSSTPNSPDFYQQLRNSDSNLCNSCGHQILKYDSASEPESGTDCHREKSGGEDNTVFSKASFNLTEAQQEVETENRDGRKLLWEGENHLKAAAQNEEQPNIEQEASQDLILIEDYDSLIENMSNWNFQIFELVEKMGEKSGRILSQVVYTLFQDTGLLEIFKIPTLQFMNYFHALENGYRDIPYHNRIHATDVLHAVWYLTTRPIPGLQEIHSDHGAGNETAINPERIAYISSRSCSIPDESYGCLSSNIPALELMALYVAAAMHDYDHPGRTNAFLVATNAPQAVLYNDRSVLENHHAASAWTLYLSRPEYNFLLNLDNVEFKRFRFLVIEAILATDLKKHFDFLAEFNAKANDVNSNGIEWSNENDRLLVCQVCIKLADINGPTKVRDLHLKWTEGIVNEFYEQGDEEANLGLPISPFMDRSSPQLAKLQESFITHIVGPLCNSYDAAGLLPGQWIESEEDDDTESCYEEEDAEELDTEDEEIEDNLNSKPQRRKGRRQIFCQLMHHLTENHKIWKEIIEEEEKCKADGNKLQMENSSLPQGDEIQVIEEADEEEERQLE

Q: Which IC50 does the source give for Nc1nc2c(ncn2[C@@H]2O[C@@H]3COP(=O)(O)O[C@H]3[C@H]2O)c(=O)[nH]1 here?
A: 0.1 µM

Q: For Cc1[nH]c(=O)c(C#N)cc1-c1ccncc1 [MILRINONE], which IC50 is on record?
A: 1 µM
